# Data reported in patent US20150133547A1, “METHOD AND COMPOSITION FOR TREATING GLAUCOMA” (priority 2013, published 2015).
# Legend:
# [1] = cited from earlier work
# canine subjects [2] = assay: Intraocular pressure (IOP) in canine subjects after topical LC drops, iCARE rebound tonometer; format: in vivo
# Description: Preparations: The desired composition was DMSO 4.0%, PG 3.0% and LC 10 mg/ml (1% (by weight)), based upon the total composition.
# A vehicle was prepared for use as a subsequent dilution (serial dilutions of the initial LC strength), by mixing 4.65 ml of BSS, 0.2 ml of DMSO, and 0.15 ml of PG, to yield a diluent vehicle comprising 4.0% DMSO and 3.0% PG, based upon the total composition. A total of 5 ml was prepared.
# Methodology: Inventive compositions were prepared by simple mixing.
# IOP was determined using an iCARE® rebound tonometer. Other commercially available IOP measuring devices (tonometers) may also be used.
# Progressive dilutions of the composition set forth in Table 1 are shown in Table 2, below, starting with the original 2.5 ml volume preparation of Table 1. These subsequent dilutions were used in the canine experiments set forth below.
# The experiments were conducted on canine subjects. Canine subjects have IOP's that are the same (˜10-20 mm/Hg) as that of a human subject. Canines and humans share a common susceptibility gene, SRBD1, for glaucoma risk. Consequently, canines are excellent surrogates to assess the results of the use of the inventive compositions on humans. The results of the experiments are set forth in Table 3, below, reflecting the concentration range of LC used as 0.002% to 0.100% (by weight).
# Additional efficacy and safety experiments were conducted using an LC concentration of 0.600% (by weight) in the same animal model. This additional data confirms in two animals the safety and efficacy of topical LC in reducing intraocular pressure.
# A series of experiments was run in the same canine model, using LC concentrations, prepared as above, and ranging from 0.200% to 0.700% (by weight).
# Humans = details: handling of pure or concentrated lambda-cyhalothrin; cited from earlier work
# [3] = cited from earlier work; remark: listed apart in the source
# rabbits = details: cited from earlier work
# [4] = cited from earlier work; remark: listed apart in the source
# rats = details: cited from earlier work
# canine subjects [5] = assay: Adverse events in canine subjects after topical LC (daily ophthalmic examinations, toxicology studies of blood)
# guinea pigs = details: cited from earlier work
# [6] = Example 2, canine, topical LC 0.600%, Day 1, drop 9:30, IOP at 9:55
# [7] = Example 2, canine, topical LC 0.600%, Day 1, drop 12:00, IOP at 12:30
# [8] = Example 2, canine, topical LC 0.600%, Day 3, drop 9:45, IOP at 10:15
# [9] = Example 2, canine, topical LC 0.600%, Day 3, drop 12:10, IOP at 12:40
# [10] = Example 3, canine, topical LC 0.200%, Day 2, drop 7:40, IOP at 8:45
# [11] = Example 3, canine, topical LC 0.300%, Day 3, drop 7:25, IOP at 7:25
# [12] = Example 3, canine, topical LC 0.300%, Day 3, drop 12:25, IOP at 13:50
# [13] = Example 3, canine, topical LC 0.300%, Day 3, drop 17:40, IOP at 17:30
# [14] = Example 3, canine, topical LC 0.400%, Day 4, drop 7:25, IOP at 7:20
# [15] = Example 3, canine, topical LC 0.400%, Day 4, drop 12:40, IOP at 12:35
# [16] = Example 3, canine, topical LC 0.400%, Day 4, drop 17:25, IOP at 17:20
# [17] = Example 3, canine, topical LC 0.500%, Day 5, drop 7:30, IOP at 7:20
# [18] = Example 3, canine, topical LC 0.500%, Day 5, drop 12:40, IOP at 12:35
# [19] = Example 3, canine, topical LC 0.600%, Day 8, drop 7:30, IOP at 7:00
# [20] = Example 3, canine, topical LC 0.600%, Day 8, drop 12:05, IOP at 12:00
# [21] = Example 3, canine, topical LC 0.600%, Day 8, drop 17:00, IOP at 16:30
# [22] = Example 3, canine, topical LC 0.700%, Day 9, drop 7:05, IOP at 7:00
# [23] = Example 3, canine, topical LC 0.700%, Day 9, drop 12:25, IOP at 12:20
# [24] = Example 3, canine, topical LC 0.700%, Day 9, drop 17:05, IOP at 17:00
# [25] = canine, topical LC 0.002%, Day 4, drop 8:30, IOP at 9:50
# [26] = canine, topical LC 0.002%, Day 5, drop 9:00, IOP at 9:50
# [27] = canine, topical LC 0.002%, Day 5, drop 14:30, IOP at 15:00
# [28] = canine, topical LC 0.020%, Day 7, drop 9:00, IOP at 9:30
# [29] = canine, topical LC 0.020%, Day 7, drop 15:00, IOP at 16:00
# [30] = canine, topical LC 0.050%, Day 9, drop 9:00, IOP at 9:30
# [31] = canine, topical LC 0.050%, Day 9, drop 15:00, IOP at 16:00
# [32] = canine, topical LC 0.100%, Day 11, drop 9:00, IOP at 9:42
# [33] = canine, topical LC 0.100%, Day 11, drop 15:00, IOP at 15:22
smiles,measurement,setting,value
"CC1(C)C(/C=C(\Cl)C(F)(F)F)C1C(=O)OC(C#N)c1cccc(Oc2ccccc2)c1 [LC, (R)-cyano(3-phenoxyphenyl) methyl (1S,3S)-rel-3-[(1Z)-2-chloro-3,3,3-trifluoro-1-propenyl]-2,2-dimethyl cyclopropane carboxylate]",water solubility,[1],low
same,reduction in intraocular pressure after topical administration,"canine subjects [2]; Example 1, canine, 0.002% to 0.100% (by weight), dose related",significant reduction
same,IOP OD,canine subjects [2]; [6],8
same,IOP OS,canine subjects [2]; [6],7
same,IOP OD,canine subjects [2]; [7],8
same,IOP OS,canine subjects [2]; [7],8
same,IOP OD,canine subjects [2]; [8],6
same,IOP OS,canine subjects [2]; [8],7
same,IOP OD,canine subjects [2]; [9],7
same,IOP OS,canine subjects [2]; [9],7
same,IOP OD,canine subjects [2]; [10],8
same,IOP OS,canine subjects [2]; [10],7
same,IOP OD,canine subjects [2]; [11],13
same,IOP OS,canine subjects [2]; [11],10
same,IOP OD,canine subjects [2]; [12],6
same,IOP OS,canine subjects [2]; [12],7
same,IOP OD,canine subjects [2]; [13],9
same,IOP OS,canine subjects [2]; [13],8
same,IOP OD,canine subjects [2]; [14],12
same,IOP OS,canine subjects [2]; [14],11
same,IOP OD,canine subjects [2]; [15],7
same,IOP OS,canine subjects [2]; [15],7
same,IOP OD,canine subjects [2]; [16],7
same,IOP OS,canine subjects [2]; [16],7
same,IOP OD,canine subjects [2]; [17],9
same,IOP OS,canine subjects [2]; [17],10
same,IOP OD,canine subjects [2]; [18],7
same,IOP OS,canine subjects [2]; [18],7
same,IOP OD,canine subjects [2]; [19],7
same,IOP OS,canine subjects [2]; [19],7
same,IOP OD,canine subjects [2]; [20],6
same,IOP OS,canine subjects [2]; [20],6
same,IOP OD,canine subjects [2]; [21],7
same,IOP OS,canine subjects [2]; [21],8
same,IOP OD,canine subjects [2]; [22],8
same,IOP OS,canine subjects [2]; [22],7
same,IOP OD,canine subjects [2]; [23],7
same,IOP OS,canine subjects [2]; [23],7
same,IOP OD,canine subjects [2]; [24],6
same,IOP OS,canine subjects [2]; [24],5
same,persistence of the reduction of intra-ocular pressure,canine subjects [2]; after exposure,hours to days
same,reduction of IOP,"canine subjects [2]; canine, dosages ranging from 0.002% to 0.700% LC (by weight), overall",35-40%
same,IOP OD (intraocular pressure right eye),canine subjects [2]; [25],8
same,IOP OS (intraocular pressure left eye),canine subjects [2]; [25],8
same,IOP OD (intraocular pressure right eye),canine subjects [2]; [26],8
same,IOP OS (intraocular pressure left eye),canine subjects [2]; [26],8
same,IOP OD (intraocular pressure right eye),canine subjects [2]; [27],8
same,IOP OS (intraocular pressure left eye),canine subjects [2]; [27],9
same,IOP OD (intraocular pressure right eye),canine subjects [2]; [28],10
same,IOP OS (intraocular pressure left eye),canine subjects [2]; [28],9
same,IOP OD (intraocular pressure right eye),canine subjects [2]; [29],10
same,IOP OS (intraocular pressure left eye),canine subjects [2]; [29],7
same,IOP OD (intraocular pressure right eye),canine subjects [2]; [30],11
same,IOP OS (intraocular pressure left eye),canine subjects [2]; [30],11
same,IOP OD (intraocular pressure right eye),canine subjects [2]; [31],7
same,IOP OS (intraocular pressure left eye),canine subjects [2]; [31],8
same,IOP OD (intraocular pressure right eye),canine subjects [2]; [32],9
same,IOP OS (intraocular pressure left eye),canine subjects [2]; [32],10
same,IOP OD (intraocular pressure right eye),canine subjects [2]; [33],11
same,IOP OS (intraocular pressure left eye),canine subjects [2]; [33],5
same,onset of symptoms after exposure,Humans,≤ 30 min
same,symptoms reported on exposure,Humans,facial tingling and burning
same,EPA toxicity class when inhaled,[3],moderately toxic
same,toxicity in skin effects for rabbits,rabbits,low toxicity
same,"EPA toxicity class, eye effects",[4],moderately toxic
same,"EPA toxicity class, skin effects for rats",rats,moderately toxic
same,local or systemic adverse events,"canine subjects [5]; Example 1, daily complete ophthalmic examinations and toxicology studies of blood",no local or systemic adverse events
same,AE,"canine subjects [5]; Example 2, topical LC 0.600%, Day 1, drop 9:30",0
same,AE,"canine subjects [5]; Example 2, topical LC 0.600%, Day 1, drop 12:00",0
same,AE,"canine subjects [5]; Example 2, topical LC 0.600%, Day 3, drop 9:45",0
same,AE,"canine subjects [5]; Example 2, topical LC 0.600%, Day 3, drop 12:10",0
same,AE,"canine subjects [5]; Example 3, topical LC 0.200%, Day 2, drop 7:40",0
same,AE,"canine subjects [5]; Example 3, topical LC 0.200%, Day 2, drop 12:22",0
same,AE,"canine subjects [5]; Example 3, topical LC 0.200%, Day 2, drop 17:05",0
same,AE,"canine subjects [5]; Example 3, topical LC 0.300%, Day 3, drop 7:25",0
same,AE,"canine subjects [5]; Example 3, topical LC 0.300%, Day 3, drop 12:25",0
same,AE,"canine subjects [5]; Example 3, topical LC 0.300%, Day 3, drop 17:40",0
same,AE,"canine subjects [5]; Example 3, topical LC 0.400%, Day 4, drop 7:25",0
same,AE,"canine subjects [5]; Example 3, topical LC 0.400%, Day 4, drop 12:40",0
same,AE,"canine subjects [5]; Example 3, topical LC 0.400%, Day 4, drop 17:25",0
same,AE,"canine subjects [5]; Example 3, topical LC 0.500%, Day 5, drop 7:30",0
same,AE,"canine subjects [5]; Example 3, topical LC 0.500%, Day 5, drop 12:40",0
same,AE,"canine subjects [5]; Example 3, topical LC 0.600%, Day 8, drop 7:30",0
same,AE,"canine subjects [5]; Example 3, topical LC 0.600%, Day 8, drop 12:05",0
same,AE,"canine subjects [5]; Example 3, topical LC 0.600%, Day 8, drop 17:00",0
same,AE,"canine subjects [5]; Example 3, topical LC 0.700%, Day 9, drop 7:05",0
same,AE,"canine subjects [5]; Example 3, topical LC 0.700%, Day 9, drop 12:25",1
same,AE,"canine subjects [5]; Example 3, topical LC 0.700%, Day 9, drop 17:05",1
same,adverse events at doses other than 0.700%,canine subjects [5]; topical 0.002% to 0.600% LC,No adverse events
same,adverse events at the 0.700% dose,canine subjects [5]; topical 0.700% LC,"minimal, reversible inferior conjunctival hyperemia"
same,AE (adverse event),"canine subjects [5]; topical LC 0.002%, Day 4, drop 8:30",0
same,AE (adverse event),"canine subjects [5]; topical LC 0.002%, Day 5, drop 9:00",0
same,AE (adverse event),"canine subjects [5]; topical LC 0.002%, Day 5, drop 14:30",0
same,AE (adverse event),"canine subjects [5]; topical LC 0.020%, Day 7, drop 9:00",0
same,AE (adverse event),"canine subjects [5]; topical LC 0.020%, Day 7, drop 15:00",0
same,AE (adverse event),"canine subjects [5]; topical LC 0.050%, Day 9, drop 9:00",0
same,AE (adverse event),"canine subjects [5]; topical LC 0.050%, Day 9, drop 15:00",0
same,AE (adverse event),"canine subjects [5]; topical LC 0.100%, Day 11, drop 9:00",0
same,AE (adverse event),"canine subjects [5]; topical LC 0.100%, Day 11, drop 15:00",0
same,skin sensitivity in guinea pigs,guinea pigs,no skin sensitivity
